Data from PMC11882969 (Nature Communications, 2025).
“And” between values parts separate entries of the source, which are not always exact repeats. Equal values may be shown once. Read-outs that look alike come from different tables or passages of the source.

Experiments:
hCB1 = hCB1 (Homo sapiens, UniProt P21554); experiment: bioSensAll ebBRET signaling profiling, hCB1; assay type: cell-based; parameters: host or cells: HEK293SL cells, transient PEI transfection; conditions: for GoB hCB1 / Gi1 hCB1: single replicate values, FigS6a; for Emax [95% CI]: normalized to CP-55,940; for EC50: read-out: EC50 [95% CI]
hCB1, sequence (P21554 whole entry): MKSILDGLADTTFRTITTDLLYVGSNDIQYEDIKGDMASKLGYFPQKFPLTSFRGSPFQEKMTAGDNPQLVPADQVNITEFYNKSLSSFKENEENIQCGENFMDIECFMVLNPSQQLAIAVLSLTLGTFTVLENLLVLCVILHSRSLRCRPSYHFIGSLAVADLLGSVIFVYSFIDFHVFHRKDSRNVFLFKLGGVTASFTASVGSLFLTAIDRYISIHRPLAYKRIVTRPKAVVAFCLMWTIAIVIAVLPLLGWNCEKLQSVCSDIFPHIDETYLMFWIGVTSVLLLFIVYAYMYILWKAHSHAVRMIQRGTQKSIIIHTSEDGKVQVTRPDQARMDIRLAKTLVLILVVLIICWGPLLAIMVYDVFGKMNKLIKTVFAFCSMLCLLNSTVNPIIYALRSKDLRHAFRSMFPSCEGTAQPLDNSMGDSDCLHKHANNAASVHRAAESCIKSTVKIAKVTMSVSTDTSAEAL

hCB2 = hCB2 (Homo sapiens, UniProt P34972); experiment: TRUPATH BRET2 GoA dissociation, HEK293T; assay type: cell-based; parameters: expressed in transfected cells; host or cells: HEK293T cells (ATCC: CRL-3216), transient co-transfection; conditions: Log[drug], replicate columns
hCB2, sequence (P34972 whole entry): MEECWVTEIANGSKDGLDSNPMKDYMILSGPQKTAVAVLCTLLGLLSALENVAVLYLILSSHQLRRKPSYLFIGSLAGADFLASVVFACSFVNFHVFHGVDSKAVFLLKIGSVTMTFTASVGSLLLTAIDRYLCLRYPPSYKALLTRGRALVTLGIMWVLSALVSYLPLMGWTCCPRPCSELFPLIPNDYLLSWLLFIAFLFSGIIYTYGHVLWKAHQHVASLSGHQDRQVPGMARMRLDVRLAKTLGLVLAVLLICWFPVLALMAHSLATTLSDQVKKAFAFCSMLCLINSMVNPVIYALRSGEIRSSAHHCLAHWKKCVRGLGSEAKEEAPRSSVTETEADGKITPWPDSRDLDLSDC

SMILES: COC(=O)[C@@H]1[C@@H]2CCC[C@@H]2CN1C(=O)c1cc(C)n(-c2cccc(Cl)c2)n1 (racemic) [‘10010]
- GoB hCB1 (hCB1; Log [Compound] (M) -5.47381): 61.9062
- Gi1 hCB1 (hCB1; Log [Compound] (M) -5.89285): 45.2596
- GoB hCB1 (hCB1; Log [Compound] (M) -5.89285): 36.262
- Gi1 hCB1 (hCB1; Log [Compound] (M) -6.31878): 29.1955
- GoB hCB1 (hCB1; Log [Compound] (M) -6.31878): 27.8098
- Gi1 hCB1 (hCB1; Log [Compound] (M) -6.72585): 16.0606
- GoB hCB1 (hCB1; Log [Compound] (M) -6.72585): 11.4989
- Gi1 hCB1 (hCB1; Log [Compound] (M) -7.14267): 6.117
- GoB hCB1 (hCB1; Log [Compound] (M) -7.14267): 3.514
- Gi1 hCB1 (hCB1; Log [Compound] (M) -7.55284): 3.804
- GoB hCB1 (hCB1; Log [Compound] (M) -7.55284): 2.9568
- Gi1 hCB1 (hCB1; Log [Compound] (M) -8): 3.373
- GoB hCB1 (hCB1; Log [Compound] (M) -8): 0.9427
- Gi1 hCB1 (hCB1; Log [Compound] (M) -8.22186): 2.679
- GoB hCB1 (hCB1; Log [Compound] (M) -8.22186): -4.812
- Gi1 hCB1 (hCB1; Log [Compound] (M) -8.39794): 2.664
- GoB hCB1 (hCB1; Log [Compound] (M) -8.39794): -1.197
- Gi1 hCB1 (hCB1; Log [Compound] (M) -8.68787): 1.0911
- GoB hCB1 (hCB1; Log [Compound] (M) -8.68787): -4.812
- Gi1 hCB1 (hCB1; Log [Compound] (M) -9.15521): 1.8
- GoB hCB1 (hCB1; Log [Compound] (M) -9.15521): -5.028
- Gi1 hCB1 (hCB1; Log [Compound] (M) -9.61989): 0.8444
- GoB hCB1 (hCB1; Log [Compound] (M) -9.61989): -4.38
- Gi1 hCB1 (hCB1; Log [Compound] (M) -10.0969): 1.662
- GoB hCB1 (hCB1; Log [Compound] (M) -10.0969): -4.057
- Gi1 hCB1 (hCB1; Log [Compound] (M) -10.5529): 2.648
- GoB hCB1 (hCB1; Log [Compound] (M) -10.5529): 1.212
- Gi1 hCB1 (hCB1; Log [Compound] (M) -11.0177): 0.9524
- GoB hCB1 (hCB1; Log [Compound] (M) -11.0177): -2.384
- Gi1 hCB1 (hCB1; Log [Compound] (M) -11.4949): 2.417
- GoB hCB1 (hCB1; Log [Compound] (M) -11.4949): -4.326
- Gi1 hCB1 (hCB1; Log [Compound] (M) -11.9208): 1.261
- GoB hCB1 (hCB1; Log [Compound] (M) -11.9208): -0.06441
- Gi1 hCB1 (hCB1; Log [Compound] (M) -12.3979): 1.908
- GoB hCB1 (hCB1; Log [Compound] (M) -12.3979): 2.4173
- Gi1 hCB1 (hCB1; Log [Compound] (M) -12.8861): 1.322
- GoB hCB1 (hCB1; Log [Compound] (M) -12.8861): 1.59
- Gi1 hCB1 (hCB1; Log [Compound] (M) -13): 2.232 and 1.538
- GoB hCB1 (hCB1; Log [Compound] (M) -13): 0.8707 and 1.266
- pEC50 [95% CI] (hCB1; hCB1 Gi1): 6.1 [6.0 – 6.1]
- Emax [95% CI] (hCB1; hCB1 Gi1): 74 [70 – 74]
- pEC50 [95% CI] (hCB1; hCB1 GoB): 6.1 [6.0 – 6.2]
- Emax [95% CI] (hCB1; hCB1 GoB): 71 [67 – 75]
- pEC50 [95% CI] (hCB1; hCB1 Gz): 5.9 [5.4 – 6.3]
- Emax [95% CI] (hCB1; hCB1 Gz): 144 [113 –175]
- EC50 (hCB1; hCB1 Gi1): 814 nM
- EC50 (hCB1; hCB1 GoB): 801 nM
- EC50 (hCB1; hCB1 Gz): 1400 nM
- functional response, concentration-response point (FigS7e, normalized) (hCB2; M = -5): 13.7314 and 19.7654 and 16.2539 and 16.3582 and 15.5266 and 14.7181 and 16.9744 and 17.1956 and 17.3437 and 20.7447 and 17.5139 and 16.5546
- functional response, concentration-response point (FigS7e, normalized) (hCB2; M = -5.52): 20.9042 and 19.2165 and 18.0732 and 18.0369 and 19.6455 and 19.8563 and 17.8521 and 14.5073 and 16.3411 and 19.903 and 17.2602 and 16.9755
- functional response, concentration-response point (FigS7e, normalized) (hCB2; M = -6): 10.7507 and 14.9427 and 13.7359 and 16.0951 and 12.4583 and 11.3422 and 12.1059 and 9.687 and 11.8107 and 11.4703 and 9.703 and 11.3929
- functional response, concentration-response point (FigS7e, normalized) (hCB2; M = -6.52): 4.563 and 6.7947 and 8.079 and 4.985 and 4.497 and 4.0725 and 5.772 and 5.524 and 4.879 and 5.1763 and 4.984 and 5.043
- functional response, concentration-response point (FigS7e, normalized) (hCB2; M = -7): 0.9969 and 1.487 and 2.14 and 1.042 and 1.585 and 1.996 and 1.046 and 1.153 and 1.5 and 1.42 and 1.036 and 1.049
- functional response, concentration-response point (FigS7e, normalized) (hCB2; M = -7.52): 0.4797 and -0.06465 and 1.02 and 1.242 and 0.9491 and 0.7245 and 0.6969 and 0.2961 and 0.374 and 0.3276 and 0.4451 and 0.1667
- functional response, concentration-response point (FigS7e, normalized) (hCB2; M = -8): 0.02154 and 0.144 and -0.228 and -0.5682 and 0.189 and -0.07359 and -0.0114 and 0.652 and 0.7051 and 0.1667 and -0.0685 and 0.08312
- functional response, concentration-response point (FigS7e, normalized) (hCB2; M = -8.52): -0.1696 and -0.1994 and 0.2365 and -0.2192 and 0.07356 and 0.6319 and 1.0091 and 0.1075 and 0.1334 and 0.5456 and 0.1807 and -0.04223
- functional response, concentration-response point (FigS7e, normalized) (hCB2; M = -12): -0.3529 and 0.3603 and 0.09782 and -0.1053
